Source: US11186577B2, “Vasopressin receptor antagonists and products and methods related thereto” (BlackThorn Therapeutics, Inc., priority 2017, dated 2021)
Like-named read-outs stand apart in the source and are kept apart here.

Experiments:
Type in all cases: in vitro ADME
MDR1 (P-glycoprotein) = experiment: MDR1-MDCK effective efflux assay (Transwell, 10 μM, 1 hour), MDR1-MDCK cells; details: dog
Outline: (§1)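 Wild-type and MDR1-MDCK monolayers cultured 3 days were dosed with compound at 10 μM (0.1% DMSO) in HBSS/25 mM HEPES pH 7.4, in both A>B and B>A directions, for 1 h at 37 °C. Samples were quantified by LC-MS/MS to give Papp and efflux ratio. Effective efflux ratio = ER(MDR1-MDCK)/ER(wild-type); Lucifer Yellow checked monolayer integrity.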

MDR1-MDCK cells = experiment: as above; details: for MDR1 EER / MDR1 ER: MDCK-MDR1; for Papp AB MDR1: MDR1-MDCK cells, apical to basolateral (A>B), 10 μM, 1 hour
Outline: as §1

[1] = MDR1-MDCK effective efflux assay (Transwell, 10 μM, 1 hour), wild-type MDCK cells; details: dog, MDCK
Outline: as §1

[2] = test system: wild-type (WT) MDCK cells; experiment: as above; details: for WT ER: MDCK; for Papp AB WT: wild-type MDCK cells, apical to basolateral (A>B), 10 μM, 1 hour
Outline: as §1

[3] = MDCK-MDR1, pH 7.4, Papp AB MDR1
[4] = MDCK-MDR1, pH 7.4, MDR1-MDCK cells, apical to basolateral (A>B), 10 μM, 1 hour, read-out: Papp AB MDR1
[5] = pH 7.4, wild-type MDCK cells, apical to basolateral (A>B), 10 μM, 1 hour, read-out: Papp AB WT

SMILES | Papp AB MDR1 (MDR1-MDCK cells) | Papp AB WT [2] | Papp A→B at 1 h, 10 μM (MDR1 (P-glycoprotein); [4]) [×10⁻⁶ cm/s] | Papp A→B at 1 h, 10 μM [1, 5] [×10⁻⁶ cm/s] | also measured
COC(=O)N1Cc2cc(Cl)ccc2-n2c(C3CC4(C3)CN(c3ncccn3)C4)nnc2C1C (stereo not drawn) [compound 166] | – | – | – | – | Papp A→B at 1 h, 10 μM (MDR1 (P-glycoprotein); [3]): < 7 ×10⁻⁶ cm/s; MDR1 EER (MDR1-MDCK cells): +; MDR1 ER (MDR1-MDCK cells): +; Papp A→B at 1 h, 10 μM ([1]; pH 7.4, Papp AB WT): > 20 ×10⁻⁶ cm/s; WT ER [2]: +++
CC1c2nnc(C3CC4(C3)CN(c3ncccn3)C4)n2-c2ccc(Cl)cc2CN1C(=O)OC(CF)CF (single isomer, unassigned) [Cpd 202A] | + ((+) denotes an apparent permeability <7 (10^-6 cm/sec)) | ++++ ((++++) denotes >20 (10^-6 cm/sec)) | – | – | –
O=C(OC1CC1)N1Cc2cc(Cl)ccc2-n2c(nnc2C2CC3(C2)CN(c2ccc(F)cn2)C3)C1 [compound 90] | – | – | > 20 | > 20 | –
COC(=O)N1Cc2cc(Cl)ccc2-n2c(C3CC4(C3)CN(c3ncccc3F)C4)nnc2C1C (stereo not drawn) [compound 182] | – | – | > 20 | > 20 | –
O=C(C1CC1)N1CC2(CC(c3nnc4n3-c3ccc(Cl)cc3CN(C(=O)C3(F)CC3)C4)C2)C1 [compound 136] | – | – | – | – | Papp A→B at 1 h, 10 μM (MDR1 (P-glycoprotein); [3]): < 7 ×10⁻⁶ cm/s; MDR1 EER (MDR1-MDCK cells): +; MDR1 ER (MDR1-MDCK cells): +; Papp A→B at 1 h, 10 μM ([1]; pH 7.4, Papp AB WT): 10 to 20 ×10⁻⁶ cm/s; WT ER [2]: +
O=C(OC(CF)CF)N1Cc2cc(Cl)ccc2-n2c(nnc2C2CC3(C2)CN(c2ccc(F)cn2)C3)C1 [compound 79] | – | – | 10 to 20 | > 20 | –
COC(=O)N1Cc2cc(Cl)ccc2-n2c(C3CC4(C3)CN(c3cnccn3)C4)nnc2C1C (single isomer, unassigned) [Cpd 165A] | + ((+) denotes an apparent permeability <7 (10^-6 cm/sec)) | ++++ ((++++) denotes >20 (10^-6 cm/sec)) | – | – | –
CCOC(=O)N1Cc2cc(Cl)ccc2-n2c(C3CC4(C3)CN(c3ncccn3)C4)nnc2C1C (single isomer, unassigned) [Cpd 168A] | ++++ ((++++) denotes >20 (10^-6 cm/sec)) | ++++ ((++++) denotes >20 (10^-6 cm/sec)) | – | – | –
FC(F)CN1Cc2cc(Cl)ccc2-n2c(nnc2C2CC3(C2)CN(c2ccccn2)C3)C1 [compound 52] | – | – | 10 to 20 | > 20 | –
CC(CF)OC(=O)N1Cc2cc(Cl)ccc2-n2c(nnc2C2CC3(C2)CN(c2ccc(F)cn2)C3)C1 (stereo not drawn) [compound 78] | – | – | > 20 | > 20 | –
COC(=O)N1Cc2cc(Cl)ccc2-n2c(C3CC4(C3)CN(c3cnccn3)C4)nnc2C1C (stereo not drawn) [compound 165] | – | – | 7 to 10 | > 20 | –
CC(=O)N1Cc2cc(Cl)ccc2-n2c(nnc2C2CC3(C2)CN(c2ccc(F)cn2)C3)C1 [compound 64] | – | – | < 7 | 10 to 20 | –
CCC(=O)N1Cc2cc(Cl)ccc2-n2c(nnc2C2CC3(C2)CN(c2ccc(F)cn2)C3)C1 [compound 72] | – | – | < 7 | > 20 | –
CC1c2nnc(C3CC4(C3)CN(c3ccc(F)cn3)C4)n2-c2ccc(Cl)cc2CN1C(=O)C1(F)CC1 (single isomer, unassigned) [Cpd 174A] | ++++ ((++++) denotes >20 (10^-6 cm/sec)) | ++++ ((++++) denotes >20 (10^-6 cm/sec)) | – | – | –
Clc1ccc2c(c1)CN(C1CC1)Cc1nnc(C3CC4(C3)CN(c3ccccn3)C4)n1-2 [compound 56] | – | – | > 20 | > 20 | –
CC1c2nnc(C3CC4(C3)CN(c3ncccn3)C4)n2-c2ccc(Cl)cc2CN1C(=O)OC1CC1 (single isomer, unassigned) [Cpd 171A] | + ((+) denotes an apparent permeability <7 (10^-6 cm/sec)) | ++++ ((++++) denotes >20 (10^-6 cm/sec)) | – | – | –
CC1c2nnc(C3CC4(C3)CN(c3ccc(F)cn3)C4)n2-c2ccc(Cl)cc2CN1C(=O)OC1CC1 (single isomer, unassigned) [Cpd 191A] | ++++ ((++++) denotes >20 (10^-6 cm/sec)) | ++++ ((++++) denotes >20 (10^-6 cm/sec)) | – | – | –

SMILES | Papp AB MDR1 (MDR1-MDCK cells) | Papp AB WT [2] | Papp A→B at 1 h, 10 μM (MDR1 (P-glycoprotein); [4]) [×10⁻⁶ cm/s] | Papp A→B at 1 h, 10 μM [1, 5] [×10⁻⁶ cm/s] | also measured
CC1c2nnc(C3CC4(C3)CN(c3ccccn3)C4)n2-c2ccc(Cl)cc2CN1C(=O)C1(F)CC1 (single isomer, unassigned) [Cpd 181A] | ++++ ((++++) denotes >20 (10^-6 cm/sec)) | ++++ ((++++) denotes >20 (10^-6 cm/sec)) | – | – | –
CC(C)C(=O)N1Cc2cc(Cl)ccc2-n2c(nnc2C2CC3(C2)CN(c2ccc(F)cn2)C3)C1 [compound 63] | – | – | < 7 | > 20 | –
CC1c2nnc(C3CC4(C3)CN(c3ccc(F)cn3)C4)n2-c2ccc(Cl)cc2CN1C(=O)C(C)(C)F (single isomer, unassigned) [Cpd 178A] | ++++ ((++++) denotes >20 (10^-6 cm/sec)) | ++++ ((++++) denotes >20 (10^-6 cm/sec)) | – | – | –
CC1c2nnc(C3CC4(C3)CN(c3ccc(F)cn3)C4)n2-c2ccc(Cl)cc2CN1C(=O)C1(F)CC1 (stereo not drawn) [compound 174] | – | – | > 20 | > 20 | –
COC(=O)N1Cc2cc(Cl)ccc2-n2c(nnc2C2CC3(C2)CN(c2ccc(F)cn2)C3)C1 [compound 61] | – | – | 10 to 20 | > 20 | –
CCOC(=O)N1Cc2cc(Cl)ccc2-n2c(C3CC4(C3)CN(c3ccc(F)cn3)C4)nnc2C1C (single isomer, unassigned) [Cpd 169A] | ++++ ((++++) denotes >20 (10^-6 cm/sec)) | ++++ ((++++) denotes >20 (10^-6 cm/sec)) | – | – | –
COC(=O)N1Cc2cc(Cl)ccc2-n2c(nnc2C2CC3(C2)CN(c2ccccn2)C3)C1 [compound 70] | – | – | 10 to 20 | > 20 | –
CCOC(=O)N1Cc2cc(Cl)ccc2-n2c(C3CC4(C3)CN(c3ccc(F)cn3)C4)nnc2C1C (stereo not drawn) [compound 169] | – | – | > 20 | > 20 | –
COC(=O)N1Cc2cc(Cl)ccc2-n2c(C3CC4(C3)CN(c3cccc(C)n3)C4)nnc2C1C (stereo not drawn) [compound 180] | – | – | > 20 | > 20 | –
CC1c2nnc(C3CC4(C3)CN(c3ncc(F)cn3)C4)n2-c2ccc(Cl)cc2CN1C(=O)OC1CC1 (single isomer, unassigned) [Cpd 192A] | ++++ ((++++) denotes >20 (10^-6 cm/sec)) | ++++ ((++++) denotes >20 (10^-6 cm/sec)) | – | – | –
O=C(C(F)F)N1Cc2cc(Cl)ccc2-n2c(nnc2C2CC3(C2)CN(c2ccccn2)C3)C1 [compound 122] | – | – | 7 to 10 | > 20 | –
FCCN1Cc2cc(Cl)ccc2-n2c(nnc2C2CC3(C2)CN(c2ccccn2)C3)C1 [compound 59] | – | – | 7 to 10 | > 20 | –
CC(C)OC(=O)N1Cc2cc(Cl)ccc2-n2c(C3CC4(C3)CN(c3ncc(F)cn3)C4)nnc2C1C (single isomer, unassigned) [Cpd 201A] | ++++ ((++++) denotes >20 (10^-6 cm/sec)) | ++++ ((++++) denotes >20 (10^-6 cm/sec)) | – | – | –
CC(C)OC(=O)N1Cc2cc(Cl)ccc2-n2c(C3CC4(C3)CN(c3ncccn3)C4)nnc2C1C (single isomer, unassigned) [Cpd 167A] | ++++ ((++++) denotes >20 (10^-6 cm/sec)) | ++++ ((++++) denotes >20 (10^-6 cm/sec)) | – | – | –
CC1c2nnc(C3CC4(C3)CN(c3ncc(F)cn3)C4)n2-c2ccc(Cl)cc2CN1C(=O)OC1(C)CC1 (stereo not drawn) [compound 173] | – | – | > 20 | > 20 | –
CCOC(=O)N1Cc2cc(Cl)ccc2-n2c(nnc2C2CC3(C2)CN(c2ccc(F)cn2)C3)C1 [compound 69] | – | – | > 20 | > 20 | –
